Measured values from US20240307427A1 (priority 2023, published 2024).
Converted amounts (≈) assume the structure as drawn. Where two headings read alike, the source gives them in different places.

Legend:
[1] = tested on: SARS-COV-2; settings: in vitro, human precision-cut lung slices; cited from earlier work
[2] = Equilibrium solubility measurement in organic solvents; type: physicochemical; settings: 25 °C, organic solvent or mixture, thermodynamic from solid
Method: 10 μL samples were injected onto the column.
Samples were filtered through 0.45 μm membrane filters, followed by dilution to appropriate concentrations for the HPLC assay.

[3] = tested on: A549 cells; assay: MTT cell viability assay; settings: 24 hours, 0.05 to 10 μM
Method: A549 cells were cultured in DMEM/F12 medium supplemented with 10% (v/v) FBS and 1% (v/v) antibiotic-antimycotic at 37° C. in a humidified incubator with 5% CO2. On the day prior to treatment addition, approximately 2×10^4 cells/well were seeded into 96-well plates and incubated overnight. […] Upon the treatment, the cells were incubated with 200 μL of MTT reagent (0.8 mg/mL) for 3 hours at 37° C. 100 μL of isopropyl alcohol was then added to each well to solubilize the formazan dye crystals and the absorbance at 570 nm was measured using a microplate spectrophotometer (Thermo Scientific™ Multiskan™ GO, Thermo-Fisher, Waltham, MA, USA). Cell viability (%) was calculated by dividing the absorbance of treated cells by the absorbance of cells from the control group with equivalent concentration of DMSO as the treatment group. Six replicates were made for each concentration and the whole MTT assay was repeated in triplicate.

[4] = intravenous doses, healthy subjects, cited from earlier work
[5] = deposited dose 0.35 mg/kg by inhalation vs 10 mg/kg intravenous, African green monkeys; cited from earlier work
[6] = cited from earlier work
[7] = In-vitro drug release study in pH 7.4 simulated lung fluid; type: physicochemical; settings: 20 mL pH 7.4 SLF3, 37° C., 75 rpm, LAG cocrystal <63 μm, n=3
[8] = pH determination during dissolution in simulated lung fluid; type: physicochemical; settings: equimolar amount (0.017 mol) in 20 mL SLF, initial pH 7.4, 37° C.
Method: The solution containing the samples was stirred at 75 rpm with a magnetic bar at 37° C., followed by in situ pH measurement at designated time points, i.e., 2 s, 5 s, 10 s, 15 s, 30 s, 45 s, 1 min, 1.5 min, 2 min, 3 min, 5 min, and 10 min, using a pH meter (Lab 850, Schott Instruments, United Kingdom).

CC(=O)Oc1ccccc1C(=O)O [ASA, acetylsalicylic acid]
SARS-COV-2 viral replication [1]: inhibit SARS-COV-2 viral replication

CCC(CC)COC(=O)[C@H](C)N[P@](=O)(OC[C@H]1O[C@@](C#N)(c2ccc3c(N)ncnn23)[C@H](O)[C@@H]1O)Oc1ccccc1 [RDV, Remdesivir]
solubility at 72 h ([2]; Acetone): 66.4 ± 5.34 mg/mL (≈ 110 mM)
solubility at 72 h ([2]; Acetonitrile): 5.68 ± 0.6 mg/mL (≈ 9.43 mM)
solubility at 72 h ([2]; Chloroform): 3.86 ± 0.3 mg/mL (≈ 6.41 mM)
solubility at 72 h ([2]; Ethanol): 34.2 ± 2.29 mg/mL (≈ 56.7 mM)
solubility at 72 h ([2]; Methanol): 191 ± 13.3 mg/mL (≈ 317 mM)
cell viability [3]: around 100%
highest plasma concentration of RDV observed [4]: 4420 ng/mL
highest plasma concentration of RDV observed ([4]; converted value): ~7.8 µM
lung RDV triphosphate levels, inhaled vs intravenous [5]: similar
aqueous solubility ([6]; background statement): < 0.03 mg/mL
solubility in water ([6]; water at 25° C.): 0.028 mg/mL (≈ 0.0465 mM)

CCC(CC)COC(=O)C(C)NP(=O)(OCC1OC(C#N)(c2ccc3c(N)ncnn23)C(O)C1O)Oc1ccccc1.O=C(O)c1ccccc1O (stereo not drawn) [RDV−SA, cocrystal of remdesivir and salicylic acid]
RDV dissolved at 120 min [7]: 71.22%
medium pH at end point of dissolution (10 min) [8]: 7.41±0.01
cell viability [3]: around 100%

O=C(O)c1ccccc1O [SA, Salicylic acid]
medium pH at end point of dissolution (10 min) [8]: 7.35±0.03
medium pH in 2 seconds (transient drop) [8]: 6.89±0.02
SARS-COV-2 viral replication [1]: inhibit SARS-COV-2 viral replication
